Experimental data published in patent publication US8895242B2, “Single molecule nucleic acid nanoparticles” (The Regents of the University of California, priority 2009, dated 2014).

How the values were obtained:
[1] = system: cells; assay: Doxorubicin toxicity to cells with and without untargeted DNA particles; type: cell-based
Protocol: The IC50 was determined to be 0.1 μg of Doxo for […]. […] Targeted DNA particles may be selected or a targeting moiety added. (2) At the same time, DNA nanoparticles absorbed Doxo, which is good for our purpose of loading DNA with drugs (FIG. 45).

[2] = system: DNA nanoparticles; assay: Doxorubicin fluorescence quenching on DNA nanoparticles; settings: indicates doxorubicin binding to the particles
Description: With increasing concentration of Doxorubicin, the DNA nanoparticles become saturated and free Doxorubicin in solution can fluoresce.
The fluorescence of doxorubicin is quenched with the addition of DNA nanoparticles, indicating doxorubicin binding to the particles (FIG. 44).

[3] = system: B16 melanoma; assay: Intra-tumoral injection into B16 melanoma, immunohistochemistry of immune cell recruitment; type: in vivo, mice
Protocol: FIG. 23 provides data relating to Hp-91(270 μg), pI:C (125 μg), or Pam3Cys (125 μg) injected into B16 melanoma and the mice were sacrificed 24 h after the injection. The tumor was embedded in OCT and frozen sections were stained for Mac 1 (macrophages), CD11c (DCs), and CD3 (T cells) by immuno-histochemistry. Pictures were taken in brightfield at 20×.
In certain subsets of breast tumors the presence of tumor-associated macrophages is associated with […]. Thus, in order to maximize the anti-tumor immune response we tested two TLR agonists; pI:C (TLR3 agonist) and Pam3Cys (TLR2 agonist), and our immunostimulatory peptides for their ability to recruit immune cells to the tumor. Hp-91, pI:C, or Pam3Cys were injected into B16 melanoma, the mice were sacrificed 24 h after the injection and the tumor was frozen and sections stained for the indicated markers. […] This is a very promising result as Hp-91 will not only contribute to the recruitment of DCs, but also mature the arriving DCs. Thus in the context of antigen release by concurrent local cytotoxic therapy, we expect to create a very favorable environment for the uptake of tumor antigen by DCs and their subsequent activation. In addition, CD8 T cells after being primed in the draining lymph nodes are expected to be recruited in higher numbers to the tumor site via the peptide leading to a strong immune response and tumor killing.

[4] = system: pancreatic cancer cell line panc02; assay: Flow cytometry binding of DNA nanoparticle clones to panc02; type: cell-based, mouse; settings: fluorescently labeled
Description: FIGS. 57A and 57B summarizes the results of the selection of pancreatic cancer cell line panc02 targeting particles. The mouse pancreatic lines panc02 was panned with a single module DNA nanoparticle library. After the 3rd and 4th round, the selected pool was fluorescently labeled and tested on the target cells by flow cytometry (FIG. 57A). A shift indicating enrichment of binding clones was observed. After the 5th and 6th round, clones were generated from the selected pool and sequenced (TABLE 6). 10 of the 12 sequenced clones contained a specific sequence motif: AATGGGGCG (SEQ ID NO:12). In two of the clones the motif appears in the same frame (C45 and C58). Two independent clones for each we recovered with the sequence of clone 40 and 46.

[5] = Hp-91 270 μg, pI:C 125 μg, Pam3Cys 125 μg, 24 h after injection
[6] = higher dose 500 μg, data not shown

For `COc1cccc2c1C(=O)c1c(O)c3c(c(O)c1C2=O)C[C@@](O)(C(=O)CO)C[C@@H]3O[C@H]1C[C@H](N)[C@H](O)[C@H](C)O1` [Doxo, Doxorubicin], the IC50 [1] was 0.1 µg, the “doxorubicin fluorescence on addition of DNA nanoparticles” value ([2]; listed as Doxorubicin) was “fluorescence is quenched” and the “doxorubicin fluorescence on addition of DNA nanoparticles” value ([2]; listed as doxorubicin) was “quenched”.

In the case of `CCCCCCCCCCCCCCCC(=O)N[C@@H](CSC[C@@H](COC(=O)CCCCCCCCCCCCCCC)OC(=O)CCCCCCCCCCCCCCC)C(=O)O` [Pam3Cys], the “recruitment of DCs (CD11c+) into the tumor” value [3, 5] is reported as “only Hp-91”, the “recruitment of T cells (CD3+) into the tumor” value [3, 5] is reported as “only Hp-91” and the “recruitment of macrophages into the tumor” value [3, 5] is reported as “caused recruitment of macrophages”. For the same molecule, the “DC recruitment into the tumor” value [3, 6] was “no T cell and DC recruitment” and the “T cell recruitment into the tumor” value [3, 6] was “no T cell”.

B1: C50: panc02-selection clone lacking the … motif, SEQ ID NO:11 (nucleic acid)
DNA: TGCTTTTTGGAACTCCTGCTCAACTTGTGTCCTCTTGAAAGAGTCGGTCATACCTATAAGAATACTTTTATACAGCCAAAGGTGACGTTGAGTTGGATCC
modifications: DNA, backbone and methylation of C not given here; rolling circle concatemer folded into DNA nanoparticle
B1 was tested, and the “binding to panc02” value [4] was “do not”.

B2: C21: panc02-selection clone lacking the … motif, SEQ ID NO:10 (nucleic acid)
DNA: TGCTTTTTGGAACTCCTGCTAGACGTTAGATGTATCTGACCTTACGACTTCAACTTCCTTCTAAATCTGCCCACAACGATGGTGACGTTGAGTTGGATCC
modifications: DNA, backbone and methylation of C not given here; rolling circle concatemer folded into DNA nanoparticle
In the case of B2, the “binding to panc02” value [4] is reported as “do not”.
